In publication PMC3914206:

How the values were obtained:
panel of 442 kinases [1] = molecular target: T1, panel of 442 kinases (Homo sapiens, UniProt P54753); format: binding; settings: Compound Concentration 10 µM
T1 construct: purchased KINOMEscan
T1 sequence (P54753 34-998): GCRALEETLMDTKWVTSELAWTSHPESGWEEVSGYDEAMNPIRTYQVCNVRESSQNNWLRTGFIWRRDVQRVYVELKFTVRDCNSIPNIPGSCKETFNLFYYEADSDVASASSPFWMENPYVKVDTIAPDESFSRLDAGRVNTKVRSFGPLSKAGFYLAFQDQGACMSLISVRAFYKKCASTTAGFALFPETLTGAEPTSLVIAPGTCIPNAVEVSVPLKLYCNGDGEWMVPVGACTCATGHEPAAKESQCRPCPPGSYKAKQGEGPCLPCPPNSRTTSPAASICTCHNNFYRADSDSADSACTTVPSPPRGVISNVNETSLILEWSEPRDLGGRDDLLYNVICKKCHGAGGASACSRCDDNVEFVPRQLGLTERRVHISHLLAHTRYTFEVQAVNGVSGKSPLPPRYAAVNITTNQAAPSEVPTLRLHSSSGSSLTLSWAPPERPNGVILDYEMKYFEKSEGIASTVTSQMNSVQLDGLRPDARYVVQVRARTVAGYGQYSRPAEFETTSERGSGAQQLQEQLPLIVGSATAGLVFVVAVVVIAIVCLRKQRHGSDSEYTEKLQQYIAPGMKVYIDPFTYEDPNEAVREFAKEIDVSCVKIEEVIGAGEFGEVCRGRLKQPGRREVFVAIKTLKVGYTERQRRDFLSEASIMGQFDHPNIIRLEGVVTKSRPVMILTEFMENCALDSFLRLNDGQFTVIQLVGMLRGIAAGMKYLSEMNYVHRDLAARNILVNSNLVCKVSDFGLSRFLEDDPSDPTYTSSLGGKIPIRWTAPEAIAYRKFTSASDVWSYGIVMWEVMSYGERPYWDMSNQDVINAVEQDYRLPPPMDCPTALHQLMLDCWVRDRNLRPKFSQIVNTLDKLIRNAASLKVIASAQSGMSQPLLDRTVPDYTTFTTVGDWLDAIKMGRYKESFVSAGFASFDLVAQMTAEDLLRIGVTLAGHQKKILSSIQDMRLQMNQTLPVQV
From the text: (§1) We assessed the selectivity of members of this scaffold using the KINOMEscan methodology across a near comprehensive panel of 442 kinases [[18,27]].

panel of 442 kinases [2] = molecular target: T2, panel of 442 kinases (Homo sapiens, UniProt P27448); format: binding; settings: Compound Concentration 10 µM
T2 construct: purchased KINOMEscan
T2 sequence (P27448 whole entry): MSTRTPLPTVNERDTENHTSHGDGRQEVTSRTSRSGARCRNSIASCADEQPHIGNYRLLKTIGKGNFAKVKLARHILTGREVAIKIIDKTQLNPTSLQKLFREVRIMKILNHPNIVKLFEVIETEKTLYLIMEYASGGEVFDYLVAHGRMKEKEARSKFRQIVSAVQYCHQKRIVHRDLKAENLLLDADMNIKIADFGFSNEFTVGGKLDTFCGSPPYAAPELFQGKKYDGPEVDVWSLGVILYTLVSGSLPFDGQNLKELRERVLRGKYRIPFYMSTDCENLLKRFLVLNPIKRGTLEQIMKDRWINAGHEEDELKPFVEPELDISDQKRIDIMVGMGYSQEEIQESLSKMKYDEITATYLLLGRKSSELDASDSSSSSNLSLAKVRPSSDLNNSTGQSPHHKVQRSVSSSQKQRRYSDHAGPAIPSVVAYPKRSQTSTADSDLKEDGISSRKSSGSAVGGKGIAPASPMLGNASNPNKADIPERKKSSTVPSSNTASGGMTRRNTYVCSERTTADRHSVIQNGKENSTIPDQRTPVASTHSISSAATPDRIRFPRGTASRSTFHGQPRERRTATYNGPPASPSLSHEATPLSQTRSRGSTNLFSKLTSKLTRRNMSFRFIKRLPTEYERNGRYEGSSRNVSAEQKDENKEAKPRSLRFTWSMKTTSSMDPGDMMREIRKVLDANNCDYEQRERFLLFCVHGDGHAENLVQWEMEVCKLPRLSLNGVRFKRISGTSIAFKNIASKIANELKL
From the text: as §1

CCOc1cc(C(=O)N2CCC(N3CCN(C)CC3)CC2)ccc1Nc1ncc2c(n1)N(C1CCCC1)c1ccccc1C(=O)N2C [Compound 26]
KINOMEscan: EPHB3 (panel of 442 kinases [1]): 100 | KINOMEscan: MARK3 (panel of 442 kinases [2]): 100

COc1cc(C(=O)N2CCC(N3CCN(C)CC3)CC2)ccc1Nc1ncc2c(n1)N(C1CCCC1)c1ccccc1C(=O)N2C [Compound 25, 11-cyclopentyl-2-((2-methoxy-4-(4-(4-methylpiperazin-1-yl)piperidine-1-carbonyl)phenyl)amino)-5-methyl-5H-benzo[e]pyrimido[5,4-b][1,4]diazepin-6(11H)-one]
KINOMEscan: EPHB3 (panel of 442 kinases [1]): 96 | KINOMEscan: MARK3 (panel of 442 kinases [2]): 100

COc1cc(C(=O)N2CCC(N3CCN(C)CC3)CC2)ccc1Nc1ncc2c(n1)N(C)c1ccccc1C(=O)N2C [15 (LRRK2-IN-1)]
KINOMEscan: EPHB3 (panel of 442 kinases [1]): 100 | KINOMEscan: MARK3 (panel of 442 kinases [2]): 98
